Reference: patent US9670223B2, “Compounds with super-aspirin effects” (SOLVOTRIN THERAPEUTICS LTD., priority 2011, dated 2017)
pIC50: −log10 of the molar value. “Also recorded” adds a separate entry of the source.

Experiments:
TCIPA = conditions: at up to 3 mM
platelets = conditions: literature, cited from earlier work
P-selectin [1] = experiment: Flow cytometry of platelet P-selectin during TCIPA induced by 59M cells; assay type: cell-based, human; conditions: 300 μM
59M cells [2] = experiment: Tumour cell-induced platelet aggregation (TCIPA), static conditions, 59M; assay type: cell-based, human; conditions: static, WP, 300 and 500 μM, 59M 1×10^3/ml; listed as ISAS
Text: ISAS meanwhile is hydrolysed to aspirin and salicylic acid. […] The structure of platelet-tumor cell aggregates was studied using phase-contrast microscopy (Alonso-Escolano et al., 2004; Jurasz et al., 2001). […] Aliquots of each sample were then taken for phase-contrast microscopy examination using an Olympus CKX41 microscope (Olympus America Inc., […].). Photomicrographs were captured using a digital camera and MicroFire (Olympus America Inc.) software (Alonso-Escolano et al., 2004; Jurasz et al., 2001).

washed platelets (WP) = experiment: Collagen-induced platelet aggregation in washed platelets (light aggregometry); assay type: cell-based, human; set-up: IC50: unit of the concentration uncertain
Method: (§1) PRP and WP (2.5×10^8 platelets ml^−1) were prepared from blood. Briefly 36 ml whole blood was collected into 4 ml of 3.15% sodium citrate; this was centrifuged at 250 ¥g for 20 min (with gentle acceleration and deceleration). At this point PRP, which had separated from white blood cells and red blood cells, was gently removed. When WP were required this PRP was centrifuged at 700 g for 10 min (with gentle acceleration and deceleration) in the presence of prostacyclin. The platelet-poor plasma (PPP) was removed and the platelet pellet was washed three times with Tyrode's buffer, before being re-suspended in Tyrode's buffer to a concentration of 2.5 ¥108 platelets/ml.
(§2) Platelet aggregation was measured by light aggregometry. […] Aggregation was initiated by the addition of agonists, and monitored by Aggro-Link software for at least 6 min.
(§3) To study the aggregatory potency of ADP, the concentration-response (0.3-10 μM) curves were generated. Collagen at different concentrations (2-5 μg/ml) was also used to induce platelet aggregation. Submaximal concentrations of agonists, i.e. the concentrations that gave approximately 95% of the maximal aggregation were used to study the effects of inhibitors of aggregation. Aspirin and aspirin prodrugs was incubated for various intervals prior to the addition of aggregating agents.
To study the involvement of plasma BuChE in the activation of ST0701, purified BuChE (3 U/ml) was incubated with WP for 5 min in the aggregometer with stirring at 900 r.p.m. before the addition of the test compounds ST0701 which was incubated with the WP for a further 10 min, prior to the addition of collagen (5 ug/ml).
(§4) Eserine (in DMSO, 10 μM, giving a final concentration≦0.25% DMSO, which pilot studies had determined not to affect platelet aggregation) was preincubated with PRP or WP for 5 min in the aggregometer with stirring at 900 r.p.m. before the addition of test compounds (ST0701-05), which were incubated in PRP or WP for a further 10 min prior to the addition of an agonist (10 μM ADP or 5 μg/ml Collagen) to induce platelet aggregation.
Phenylmethylsulphonylfluoride (PMSF) 20, 50 and 100 μM dissolved in EtOH (<0.2% EtOH, which pilot studies had determined not to affect platelet aggregation) was preincubated in WP in the aggregometer for 5 min with stirring at 900 r.p.m. before the addition of test compound ST0702 to the WP, which was further incubated for 10 min prior to the addition of collagen (2 μg/ml) to induce platelet aggregation.

[3] = test system: platelet rich plasma (PRP); experiment: ADP-induced platelet aggregation in PRP; assay type: cell-based, human
Method: as §1, §2, §3, §4
1H-[1,2,4]Oxadiazolo[4,3-a]quinoxalin-1-one (ODQ, dissolved in 100% DMSO, used at a final concentration of 10 μM, which gave a final concentration not more than 0.25% DMSO) was preincubated with PRP or WP for 5 min in the aggregometer with stirring at 900 r.p.m. before the addition of test compounds (ST0701-05), which were incubated in PRP or WP for a further 10 min prior to the addition of an agonist (10 μM ADP or 5 μg/ml collagen) to induce platelet aggregation.
Eserine (10 μM) was incubated with PRP for 5 min in the aggregometer with stirring at 900 r.p.m. before the addition of test compound ST0702 salicylate (500 μM), which was incubated in PRP for a further 10 min prior to the addition of the agonist ADP (10 μM) to induce platelet aggregation.

GPIIb/IIIa = experiment: Flow cytometry of activated GPIIb/IIIa on platelets after collagen stimulation; assay type: cell-based, human; conditions: 60 μM
Method: (§5) In order to analyze receptor expression on the surface of individual platelets and to minimize platelet activation caused by sample preparation procedures, no stirring or vortexing steps were used. The abundance of activated GPIIb/IIIa and P-selectin on the surface of platelets in the presence and absence of inhibitors was measured by flow cytometry. Platelet samples were first activated with agonists either collagen or ADP. When platelet aggregation reached 50% maximal light transmission the reaction was terminated by 10-fold dilution with physiologic saline. Resting platelets were used as control. […] The activated GPIIb/IIIa platelet receptors were measured using PAC-1 monoclonal antibody at the same concentration as above. […] Following incubation, samples were diluted in FACS Flow fluid and analyzed within 5 min using a BD FACSArray (BD Biosciences, Oxford, UK). […] The instrument was set up to measure the size (forward scatter), granularity (side scatter) and cell fluorescence. […] Antibody binding was measured by analyzing individual platelets for fluorescence. The mean fluorescence intensity was determined after correction for cell autofluorescence. For each sample, the fluorescence was analyzed using a logarithmic scale. Fluorescence histograms were obtained for 10,000 individual events. […]

P-selectin [4] = experiment: Flow cytometry of P-selectin on platelets after collagen stimulation; assay type: cell-based, human; conditions: 60 μM
Method: as §5

[5] = test system: platelet rich plasma (PRP); experiment: Collagen-induced platelet aggregation in platelet rich plasma (light aggregometry); assay type: cell-based, human; conditions: 200 μM in PRP, collagen 5 μg/ml
Method: as §1, §2, §3, §4

HT1080 cells = experiment: Tumour cell-induced platelet aggregation (TCIPA), static conditions, HT1080; assay type: cell-based, human; conditions: 500 μM
Method: Three human tumor cell lines, 59M ovarian adenocarcinoma, Caco-2 colon adenocarcinoma and HT1080 fibrocarcinoma cells, were obtained from the European Cell Culture Collection. Cell lines were cultured as monolayers in 75 ml culture flasks at 37° C. in a humidified atmosphere with 5% CO2. 59M cells and HT1080 were cultured in Dulbecco's […] (DMEM) supplemented with 10% fetal bovine serum (FBS) and gentamycin (0.05 mg/ml), penicillin (0.06 mg/ml), and streptomycin (0.01 mg/ml). Caco-2 cell line was cultured in Minimum Essential Medium (MEM) supplemented with 20% FBS and the same antibiotics as above. The cells were supplied with fresh medium and subcultured three times each week.
Washed platelet suspensions (2.5×10^11 platelets 1^−1) were prepared from blood an mixed with the anticoagulant sodium citrate (0.315% final concentration).
The interactions between platelets and tumor cells were measured by light aggregometry (Alonso-Escolano et al., 2004; Jurasz et al., 2001b; Radomski et al., 1991). Briefly, washed platelet samples (2.5×10^8/ml) were placed in an eight channel PAP 8 aggregometer (BIO/DATA CORPORATION, Horsham, Pa., U.S.A.) and incubated for 10 min at 37° C., with stirring at 900 r.p.m., prior to the addition of aggregating agents. […] TCIPA was initiated by the addition of cancer cells, and monitored by Aggro-Link software for at least 30 min. For experiments using inhibitors, aggregation was initiated after 10 min preincubation with these compounds.
To study the ability of the aspirin pro-drugs to inhibit TCIPA in WP cancer cell lines such as HT1080 cells (2×10^5/ml), CaCo2 cells (1.5×10^3/ml) or 59M cells (1×10^3/ml) were used in the presence or absence of aspirin nicotinate (ST0702), ISAS, orthonitrate and metanitrate at 300 and 500 μM. Platelet aggregation was initiated in washed platelets (WP) using HT1080 cells (2×10^5/ml), CaCo2 cells (1.5×10^3/ml) or 59M cells (1×10^3/ml). In addition, regular aspirin (300 and 500 uM) was used as control. Results were expressed in percent changes in maximal light transmission, with 100% representing light transmission of platelet medium alone. ST0702 is hydrolyzed by plasma esterases along two pathways liberating both aspirin and 5-nicotinate salicylate (ST0702 salicylate)(metabolite). The latter is further processed to isosorbide-5-nicotinate and eventually to nicotinic acid. The orthonitrate and metanitrate compounds liberate aspirin and nitric oxide (NO). ISAS meanwhile is hydrolysed to aspirin and salicylic acid. Aspirin (300 and 500 μM) was used in control experiments. Results were expressed in percent changes in maximal light transmission, with 100% representing light transmission of platelet medium alone. Further experiments were performed with ST0702 salicylate (500 μM).

[6] = In-vitro half life of the ST0702 metabolite; assay type: in vitro ADME
59M cells [7] = experiment: Flow-mediated TCIPA using an ultrasound standing wave trap; assay type: cell-based, human; conditions: 500 μM, 59M cell cluster
Text: The ultrasound trap had three essential features: a transducer (Ferroperm, Kvistgard, Denmark) in a housing of radial symmetry, an aqueous phase and a reflector that provided optical access from above. The trap was driven with a function generator (Hewlett Packard 33120A, UK). Microscopic observation occurred with a fast, high-resolution XM10 camera (Soft Imaging System, SIS, GmbH) mounted on an Olympus BX51M reflection epi-fluorescence microscope. Images were captured by a standard PC equipped with the Cell-D image acquisition software (Soft Imaging System, SIS, GmbH).
The experimental procedure was as follows: 59M cells were introduced into the trap, the acoustic field (2.13 MHz, 0.85 MPa) was initiated and cell clusters were allowed to form. Clusters remained levitated in suspension for 10 min. Washed platelets (2.5×10^8/ml) were introduced into the trap at a flow rate of 3 μl/min. Perfusion of washed platelets around the cluster proceeded following initial adhesion of platelets to the periphery of the cluster.
To study the effect of aspirin and aspirin prodrugs in TCIPA, washed platelets were pre-incubated for 10 min at room temperature with the inhibitors: aspirin, nicotinate, ISAS, ISMNA, ortho and meta (all at a concentration of 500 μM), prior to their introduction into the ultrasound trap. […] The cell cluster-platelet aggregate remained under microscopic observation for further 10 min (the upper time limit established in the current study) under continuous flow conditions. Further experiments were performed with ST0702 salicylate (500 μM).

washed platelet samples = experiment: Collagen-induced platelet aggregation in the TCIPA studies (washed platelets); assay type: cell-based, human; conditions: collagen 2 μg/ml (FIG. 16B)

SMILES: O=C(O)c1cccnc1 [nicotinic acid, reference compound]
- inhibition of TCIPA (TCIPA): did not inhibit TCIPA

SMILES: CC(=O)Oc1ccccc1C(=O)Oc1cccc(CO[N+](=O)[O-])c1 [NCX-4016]
- inhibition of platelet aggregation in WP (platelets; NO and cGMP independent): inhibits platelet aggregation
- inhibition of platelet aggregation in PRP (platelets): does not inhibit platelet aggregation

SMILES: CC(=O)Oc1ccccc1C(=O)OC1COC2C(OC(=O)c3ccccc3O)COC12 (stereo not shown) [ST0701, isosorbide-2-aspirinate-5-salicylate]
- 59M-mediated increase in platelet surface P-selectin (P-selectin [1]): failed to prevent
- inhibition of TCIPA induced by 59M (59M cells [2]): able to inhibit; also recorded: inhibited
- inhibitory actions in WP after addition of human BuChE purified from plasma (washed platelets (WP); BuChE 3 U/ml, collagen 5 μg/ml): rescued
- inhibition of collagen induced aggregation in WP (washed platelets (WP); at 500 μM, collagen 5 μg/ml): 50%
- pIC50 (washed platelets (WP); inhibition of platelet aggregation in response to collagen (5 (unit uncertain)), washed platelets): 3.70
- inhibition of ADP (10 μM) induced aggregation in PRP, comparison in words ([3]; ADP 10 μM, PRP): more efficacious than aspirin
- effect of ODQ pretreatment on inhibition of ADP induced aggregation ([3]; ODQ 10 μM, compounds 100 μM, ADP 10 μM, PRP): increased the inhibition
- activation of GPIIb/IIIa in PRP (GPIIb/IIIa): significantly suppressed
- translocation of P-selectin in PRP (P-selectin [4]; PRP): significantly suppressed
- translocation of P-selectin in WP (P-selectin [4]; WP): not in WP
- inhibition of aggregation at 2 min preincubation [5]: 40%
- preincubation time at which inhibition is maximal [5]: 5 min

SMILES: O=C(O[C@@H]1CO[C@H]2[C@@H]1OC[C@@H]2OC(=O)c1ccccc1O)c1cccnc1 [ST0702 salicylate, isosorbide-2-salicylate-5-nicotinate]
- inhibition of TCIPA in response to HT1080, no flow (HT1080 cells): inhibit TCIPA
- half life in-vitro [6]: very short
- inhibition of ADP-induced aggregation in PRP ([3]; 500 μM, ADP 10 μM): inhibited ADP-induced aggregation
- inhibition of ADP-induced aggregation in PRP in the presence of eserine ([3]; 500 μM, eserine 10 μM): became significant
- inhibition of TCIPA under flow conditions (platelet-tumour cell disruption) (59M cells [7]): did not inhibit TCIPA under flow conditions
- inhibition of collagen-induced platelet aggregation (washed platelet samples): did not inhibit collagen-induced platelet aggregation

SMILES: O=C(OC1COC2C(O)COC12)c1cccnc1 (stereo not shown) [isosorbide-5-nicotinate]
- inhibition of TCIPA (TCIPA): did not inhibit TCIPA
